Reference: article PMC5062570 (Nature Communications, 2016)

Experiments:
retina = conditions: mouse, in vivo; cited from earlier work
BACE2 = target: T1, BACE2 (Homo sapiens, UniProt Q9Y5Z0); assay: BACE2 purified enzyme fluorescence polarization assay; format: biochemical; conditions: purified human enzyme, fluorescence polarization
T1 construct: purchased R&D Systems 4097-AS
T1 sequence (Q9Y5Z0 63-518): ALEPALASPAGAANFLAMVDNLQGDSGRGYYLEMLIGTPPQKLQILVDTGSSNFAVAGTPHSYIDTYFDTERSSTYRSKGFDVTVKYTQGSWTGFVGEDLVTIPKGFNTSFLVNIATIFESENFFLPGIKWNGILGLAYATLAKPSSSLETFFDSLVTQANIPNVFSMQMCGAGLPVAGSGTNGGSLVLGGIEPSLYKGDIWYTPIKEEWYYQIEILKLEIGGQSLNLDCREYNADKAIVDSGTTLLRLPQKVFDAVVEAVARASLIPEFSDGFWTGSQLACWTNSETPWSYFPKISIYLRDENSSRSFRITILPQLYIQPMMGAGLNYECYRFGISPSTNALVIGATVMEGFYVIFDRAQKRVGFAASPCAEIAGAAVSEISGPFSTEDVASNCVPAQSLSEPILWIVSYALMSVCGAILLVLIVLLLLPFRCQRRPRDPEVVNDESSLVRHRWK
Description: (§1) Purified enzyme inhibition of BACE1, BACE2, CatD and CatE was determined using fluorescence polarization (FP) assays. Briefly, purified enzymes were treated with test compounds (1% DMSO, 37 °C) in the presence of synthetic peptide substrates (150 nM) in 30 μl total volume of NaOAc buffer (100 mM, pH 4.5, 0.0001% Tween-20) in a 384-well plate. After incubation, reactions were stopped and substrate captured by the addition of 1.5 μM streptavidin, and FP measured with an EnVision plate reader (PerkinElmer, excitation 485 nm, emission 530 nm). […] BACE2 activity was assessed with 0.5 nM recombinant BACE2 (R&D Systems 4097-AS) and the same synthetic substrate used for BACE1, with a 1 h incubation time. […] CatE activity was assessed with 1.0 nM recombinant CatE (Creative BioMart CTSE-255H) and the same synthetic substrate used for CatD, with a 1.5 h incubation time.

Microsomal stability = format: in vitro ADME
CatD [1] = target: T2, CatD (Homo sapiens, UniProt P07339); assay: PF-7802 labelling of HEK293T cells overexpressing CatD; format: cell-based; parameters: Myc-DDK (FLAG) (C); host or cells: HEK293T; conditions: 1 μM PF-7802, in-gel fluorescence
Description: (§2) Myc-DDK-tagged BACE1 and CatD were purchased as complementary DNA clones in the pCMV6-Entry vector (OriGene, catalogue nos RC209115 and RC200719). Site-directed mutagenesis was performed using the QuikChange II kit (Agilent) according to the manufacturer's protocols. For CatD M307A, forward primer 5′-[…]-3′ and its reverse complement primer were used. For CatD M309A, the forward primer was 5′-[…]-3′. Mutagenesis was confirmed by sequencing using primers provided by OriGene with the cDNA.
(§3) HEK-293T cells were plated at a density of 1 × 10^6 cells per well, allowed to adhere overnight and then transfected with Lipofectamine 3000 (Life Technologies) according to the manufacturer's protocol. […] Immunoblots were scanned using a LiCor Odyssey.
Target sequence in this assay (P07339 65-412): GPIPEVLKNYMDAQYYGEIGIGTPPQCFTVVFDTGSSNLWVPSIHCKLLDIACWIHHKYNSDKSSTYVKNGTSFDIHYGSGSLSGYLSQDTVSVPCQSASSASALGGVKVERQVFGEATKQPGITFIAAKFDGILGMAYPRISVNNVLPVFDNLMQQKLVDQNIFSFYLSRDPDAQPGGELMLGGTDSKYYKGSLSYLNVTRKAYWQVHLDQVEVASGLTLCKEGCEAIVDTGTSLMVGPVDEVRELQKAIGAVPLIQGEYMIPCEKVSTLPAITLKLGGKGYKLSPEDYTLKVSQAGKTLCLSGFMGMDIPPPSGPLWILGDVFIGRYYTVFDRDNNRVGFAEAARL

BACE1 [2] = target: T3, BACE1 (Homo sapiens, UniProt P56817); assay: BACE1 purified enzyme fluorescence polarization assay; format: biochemical; parameters: His (C); made in house; host or cells: CHO-K1; conditions: purified human enzyme, fluorescence polarization, peptide substrate
Description: as §1
Target sequence in this assay (P56817 46-457): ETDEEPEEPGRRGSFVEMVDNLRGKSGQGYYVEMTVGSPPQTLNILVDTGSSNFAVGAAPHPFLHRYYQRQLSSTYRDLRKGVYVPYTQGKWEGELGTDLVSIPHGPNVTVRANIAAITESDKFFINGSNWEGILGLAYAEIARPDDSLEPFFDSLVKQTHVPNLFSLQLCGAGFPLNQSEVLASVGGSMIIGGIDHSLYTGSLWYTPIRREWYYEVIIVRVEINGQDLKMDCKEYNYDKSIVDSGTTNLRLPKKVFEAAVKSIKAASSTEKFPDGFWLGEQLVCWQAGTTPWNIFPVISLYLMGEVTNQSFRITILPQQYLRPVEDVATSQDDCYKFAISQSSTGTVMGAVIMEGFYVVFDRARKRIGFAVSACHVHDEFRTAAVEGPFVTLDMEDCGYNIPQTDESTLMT

BACE1 [3] = target: T3, BACE1; assay: BACE1 biochemical cellular assay (sAPPβ ELISA in H4 cells overexpressing APP695); format: cell-based; parameters: endogenous in cells; host or cells: H4 human neuroglioma cells overexpressing human APP695; conditions: sAPPβ ELISA, H4 neuroglioma cells with human wild-type APP
Description: Cellular inhibition of BACE1 was determined by measuring sAPPβ, the primary cleavage product of BACE-1, in H4 human neuroglioma cells overexpressing the wild-type human APP695. […] The colorimetric reaction was read by an EnVision plate reader (PerkinElmer).
Target sequence in this assay (P56817 46-501): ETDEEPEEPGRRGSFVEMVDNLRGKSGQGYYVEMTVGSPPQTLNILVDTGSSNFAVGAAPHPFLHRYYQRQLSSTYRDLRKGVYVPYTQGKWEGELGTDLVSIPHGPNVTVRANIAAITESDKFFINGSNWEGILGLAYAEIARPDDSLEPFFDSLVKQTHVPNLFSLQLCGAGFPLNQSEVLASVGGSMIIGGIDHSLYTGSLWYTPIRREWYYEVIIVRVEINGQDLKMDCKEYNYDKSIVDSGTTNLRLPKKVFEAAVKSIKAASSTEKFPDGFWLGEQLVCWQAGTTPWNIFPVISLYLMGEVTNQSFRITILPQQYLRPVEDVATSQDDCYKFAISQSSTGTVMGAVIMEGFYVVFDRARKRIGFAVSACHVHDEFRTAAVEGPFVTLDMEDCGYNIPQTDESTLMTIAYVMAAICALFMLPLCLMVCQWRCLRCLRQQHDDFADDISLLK

BACE1 [4] = target: T3, BACE1; assay: PF-7802 labelling of HEK293T cells overexpressing BACE1; format: cell-based; parameters: endogenous in cells; host or cells: H4 human neuroglioma cells overexpressing human APP695; conditions: 1 μM PF-7802, in-gel fluorescence
Description: as §2, §3
Target sequence in this assay (P56817 46-501): as above

CatD [5] = target: T2, CatD; assay: CatD purified enzyme fluorescence polarization assay; format: biochemical; parameters: final maturation into a non-covalently associated heavy chain and light chain; purchased Sigma C8696; host or cells: human liver; conditions: purified human enzyme, fluorescence polarization, substrate-based
Description: as §1
Target sequence in this assay (P07339 65-162 limits assumed): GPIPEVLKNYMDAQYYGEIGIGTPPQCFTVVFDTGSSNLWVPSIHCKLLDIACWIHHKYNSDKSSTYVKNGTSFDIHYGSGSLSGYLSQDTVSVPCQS
Target sequence in this assay (P07339 169-412 limits assumed): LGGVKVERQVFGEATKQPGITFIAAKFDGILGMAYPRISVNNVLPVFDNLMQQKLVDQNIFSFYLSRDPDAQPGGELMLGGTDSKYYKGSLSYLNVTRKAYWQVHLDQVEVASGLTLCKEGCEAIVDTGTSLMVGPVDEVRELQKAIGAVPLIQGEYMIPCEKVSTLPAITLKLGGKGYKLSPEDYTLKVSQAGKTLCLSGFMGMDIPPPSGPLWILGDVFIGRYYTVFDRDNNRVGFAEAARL

| SMILES | Ocular pathology in wild-type mice (retina) | IC50 (BACE2) [nM] | Microsomal stability (Microsomal stability) | PF-7802 labelling in HEK293T cells overexpressing CatD (CatD [1]) | IC50 (BACE1 [2]) [nM] | IC50 (BACE1 [3]) [nM] | PF-7802 labelling in HEK293T cells overexpressing BACE1 (BACE1 [4]) | IC50 (CatD [5]) [nM] |
| --- | --- | --- | --- | --- | --- | --- | --- | --- |
| C[C@@H](NC(=O)c1cc(C(=O)N[C@@H](Cc2ccccc2)[C@H](O)CNC2CC2)cc(N(C)S(C)(=O)=O)c1)c1ccccc1 [BACE1 inhibitor IV] | could also be induced in vivo in wild-type mice |  |  |  |  |  |  |  |
| C#CCOc1ccc(C(=O)c2ccc(COC[C@H]3C[C@H]4CSC(N)=N[C@@]4(c4ccc(F)cc4F)CO3)cc2)cc1 [PF-7802] |  | 120 | poor microsomal stability | robust labelling of CatD was observed | 44 | 320 | indistinguishable from a mock transfected control | 1200 |
